Test system: APP
Experiment: Western blot of APP and fragments in formic acid brain extracts of hAPP mice
Format: in vivo, mouse
Description: For Western blot analyses, frozen hemispheres of non-transgenic littermates were homogenized in TBS buffer containing 5 mM EDTA, 1 mM 1,10-phenanthroline (ICN Biomedicals), 20 μM ALLN (BioMol) and a protease inhibitor mixture (Roche). Homogenates were centrifuged at 100000 g for 1 hour at +4° C. The supernatants were used for analyses of secreted APP forms and ApoE, while the pellets extracted with the homogenization buffer containing 1% Triton X-100 and 0.2% SDS. 120 μg of total protein were resolved on 4-12% or 12% NuPAGE Bis-Tris gels (Invitrogen) under reducing conditions, and Western blots were performed as described previously (Puglielli et al., 2001). For analysis of Notch-ICD (NICD), 250 μg of total protein was immunoprecipitated with an NICD-specific antibody (cleavage site (Val1744)-specific; Cell Signaling Technology) according to manufacturer's recommendations. […] Densitometric analyses were performed using the QuantityOne software package (Bio-Rad). Statistical significance was determined by Student's t test. […]

Compound: CCCCCCCC[C@H](SCCCCCC)C(=O)Nc1c(SC)cc(C)nc1SC [CP-113,818]
- full-length APP and APP C-terminal fragments C83 and C99: unchanged
- decrease of sAPP levels (adjusted to full-length APP): 60%

From US20050118226A1, “Methods for treating ACAT-related diseases” (priority 2003, published 2005)
